Where a name gives a salt, the structure may show the parent alone.
Assays:
Huh7.5 cells = test: SAR test of C10 derivatives: cytotoxicity (CellTiterGlo); details: 48 h
HCV = test: IC50 against HCV, RLuc reporter virus, re-infection of naïve Huh7.5 cells; type: cell-based, Hepatitis C virus; details: serial dilutions 20 to 0.0024 μM
Method: Concerning the SAR studies, 45 C10 derivatives were designed and synthesized, which were tested regarding both their antiviral activity against HCV and DENV, as well as their cytotoxicity. For the activity test, a construct including the viral genome and the reporter gene RLuc was used.
Huh7.5 cells were electroporated with the corresponding RNA, seeded in 96-well plate and treated during 24/48 h with C10 and the different compounds. The supernatant of virus-producing cells was used to re-infect naïve Huh7.5 cells, which were then lysed and their RLuc signal measured.

in vitro = details: for % Remain. Mean: mouse plasma, 1 μM, 37° C.
Method: Plasma stability is defined as the percentage of parent compound remaining in plasma over the time.
Incubations were carried out in 5 aliquots of 70 μL each (one for each time point), in duplicates. Test compounds (1 μM, final DMSO concentration 1%) were incubated at 37° C. with shaking at 100 rpm. Five time points over 120 minutes have been analyzed. The reactions were stopped by adding 420 μL of acetonitrile-water mixture (90:10) with subsequent plasma proteins sedimentation by centrifuging at 5500 rpm for 5 minutes. Supernatants were analyzed by the HPLC system coupled with tandem mass spectrometer. The percentage of the test compounds remaining after incubation in plasma and their half-lives (T1/2) were calculated.

[1] = Metabolic stability in mouse liver microsomes; details: male, Balb/c, mouse, microsomes, pH 7.4
Method: Microsomal incubations were carried out in 96-well plates in 5 aliquots of […] each (one for each time point). […] Control incubations were performed replacing the NADPH-cofactor system with PBS. […] Incubations were performed in duplicates. Five time points over 40 minutes had been analyzed. The reactions were stopped by adding 12 volumes of 90% acetonitrile-water to incubation aliquots, followed by protein sedimentation by centrifuging at 5500 rpm for 3 minutes. […]. Supernatants were analyzed using the HPLC system coupled with tandem mass spectrometer.
The elimination constant (kel), half-life (t½) and intrinsic clearance (Clint) were determined in plot of In(AUC) versus time, using linear regression analysis (In order to indicate the quality of the linear regression analysis, the R (correlation coefficient) values are provided. In some cases, the last time point is excluded from the calculations to ensure acceptable logarithmic linearity of decay): […]

[2] = tested on: hematopoietic stem cell formation; test: Effect on zebrafish hematopoietic stem cell formation (in situ runx-1+c-myb); type: in vivo; details: 36 hpf
Method: Zebrafish embryos were exposed 20-30 min after fertilization to differing concentrations of the compounds C10 and D1 (5 μM; 15 μM; 25 μM) or to medium containing the corresponding solvent (DMSO) concentration. Therefore, 3-5 embryos were sorted into each of three wells of a 96 well plate containing 200 μl of medium. For phenotype analysis, triplicates were imaged after 6-7 h post fertilization (hpf) at approximately shield stage, after 24 hpf and after 48 hpf. Dead +unfertilized embryos were removed. For imaging at 24 hpf +48 hpf; embryos were anesthetized using MESAB. (A) Diagramm showing the percentage of embryos at each time point either developing normal (blue color) or with the indicated phenotype. (B) representative images of embryos treated with the indicated compounds, or controls at the respective time points. (C) To additionally elucidate the influence on hematopoietic stem cell formation, approx. half of the embryos were sampled at 36 hpf and an in situ staining for runx-1+c-myb was performed. Shown are representative images of hematopoietic stem cell formation with the treatment indicated.
Embryos were exposed 20-30 min after fertilization to differing concentrations of the compounds C10 and D1 (5 μM; 15 μM; 25 μM) or to medium containing the corresponding solvent (DMSO) concentration. […]

DENV capsid protein = target: T1, DENV capsid protein (Dengue virus type 2, UniProt P29990); test: Crosslinking of recombinant DENV capsid protein (Western blot); type: biochemical
T1 construct: recombinant DENV capsid protein; made in house; host or cells: E. coli
Description: (§1) DSS was included as a positive control.

[3] = tested on: VP1 polyomavirus, LP1 HPV16, p24 HIV, BSA, GFP; test: Specificity in the cross-linking assay: other capsid and non-related proteins; type: biochemical
Method: as §1
To study the specificity of C10, capsid proteins of other viruses (VP1 polyomavirus, LP1 HPV16, and p24 HIV) as well as non-related proteins (BSA, GFP), were incubated in the so-called cross-linking assay, with DSS or C10.

SMILES: CC(=O)Nc1ccc2c(c1)S/C(=C\C=C\c1sc3cc(NC(C)=O)ccc3[n+]1C)N2C [compound 45, 6-acetamido-2-((1E,3E)-3-(6-acetamido-3-methylbenzo[d]thiazol-2(3H)-ylidene)prop-1-en-1-yl)-3-methylbenzo[d]thiazol-3-ium iodide]
- cytotoxicity (Huh7.5 cells): not cytotoxic at the concentrations in which they are antiviral
- potency relative to C10 (IC50 against HCV) (HCV): 2.5 times

SMILES: CC(C)[N+](C)(CCOC(=O)C1c2ccccc2Oc2ccccc21)C(C)C [Propantheline, Propantheline bromide, reference compound]
- % Remain. Mean (in vitro; 0 min): 100%
- % Remain. Mean (in vitro; 20 min): 66%
- % Remain. Mean (in vitro; 40 min): 29%
- % Remain. Mean (in vitro; 60 min): 13%
- % Remain. Mean (in vitro; 120 min): 2%
- half-life at 1 μM (in vitro; mouse, plasma): 20 min

SMILES: CC(C)NCC(O)COc1cccc2ccccc12 (racemic) [Propranolol, (+,−) Propranolol hydrochloride, reference compound]
- half-life at 2 mM [1]: 53.9 min

SMILES: CCN1/C(=C/C(C)=C/c2sc3cc(NC(C)=O)ccc3[n+]2CC)Sc2cc(NC(C)=O)ccc21 [compound 46, 6-acetamido-2-((1E,3E)-3-(6-acetamido-3-ethylbenzo[d]thiazol-2(3H)-ylidene)-2-methylprop-1-en-1-yl)-3-ethylbenzo[d]thiazol-3-ium iodide]
- cytotoxicity (Huh7.5 cells): not cytotoxic at the concentrations in which they are antiviral
- potency relative to C10 (IC50 against HCV) (HCV): 1.5 times

SMILES: CCN1/C(=C/C=C/c2sc3cc(N)ccc3[n+]2CC)Sc2cc(N)ccc21.[I-] [D1, 6-amino-2-[(1E)-3-[(2Z)-6-amino-3-ethyl-2,3-dihydro-1,3-benzothiazol-2-ylidene]prop-1-en-1-yl]-3-ethyl-1,3-benzothiazol-3-ium iodide]
- hematopoietic stem cell formation [2]: no difference to the WT embryos

SMILES: O=C(CCCCCCC(=O)ON1C(=O)CCC1=O)ON1C(=O)CCC1=O [DSS, disuccinimidyl suberate, reference compound]
- effect on oligomerization state of DENV capsid protein (DENV capsid protein): stabilizes mainly the dimer
- crosslinking effect on other capsid and non-related proteins [3]: clear effect of monomer consumption and dimer formation
